This note sets out measurements from US20130071439A1, “METHODS AND COMPOSITIONS FOR TREATING BIOFILMS” (PRESIDENT AND FELLOWS OF HARVARD COLLEGE, priority 2010, published 2013).

One assay concerns eps operon (strain FC5). As to the kind of experiment: Expression of PepsA-lacZ (β-galactosidase activity). Format: cell-based, Bacillus subtilis. The following applies: 3 μM. As to the method:
(§1) Assays of β-galactosidase activity. Cells were cultured in MSgg medium at 37° C. in a water bath with shaking 1 ml of culture was collected at each time point. β-galactosidase activity was determined as described previously (Chai et al., Mol. Microbiol. 67:254 (2008)).

Assay [1] concerns B. subtilis strain NCIB3610. The assay can be described thus: Pellicle (biofilm) formation in liquid biofilm-inducing medium. Format: cell-based, Bacillus subtilis. On the procedure:
(§2) For colony formation on solid medium, cells were first grown to exponential growth phase in LB broth and 3 μl of culture were spotted onto solid MSgg medium containing 1.5% Bacto agar. The plates were incubated at 23° C. For pellicle formation in liquid medium, cells were grown to exponential phase and 6 μl of culture were mixed with 6 ml of medium in a 12-well plate (VWR). Plates were incubated at 23° C. Images of colonies and pellicles were taken using a SPOT camera (Diagnostic Instruments, USA).
To investigate whether mature biofilms produce a factor that triggers biofilm disassembly, the effect of concentrated and partially purified extracts of conditioned medium on pellicle formation when added to fresh medium was assayed. To this end, conditioned medium from an eight-day-old culture was applied to a C18 Sep Pak column. Concentrated eluate from the column was then added to a freshly inoculated culture. […] Further purification of the factor was achieved by eluting the cartridge in step-wise fashion with increasing concentrations of methanol.
D-tyrosine, D-leucine, D-tryptophan, and D-methionine were screened for inhibiting biofilm formation by B. subtilis both in liquid and on solid medium (FIG. 2A, 5, 6).
Next, the minimum concentration (MIC for Minimal Inhibitory Concentration) needed to prevent biofilm formation was determined.

The test system of assay [2] is Pseudomonas aeruginosa PA14. The assay can be described thus: Biofilm formation on polystyrene, crystal violet staining. The following applies: 10 μM, 48 hours at 30° C., M63. It is filed as cell-based. On the procedure:
Crystal violet staining was done as described previously (O'Toole et al., Mol. Microbiol. 30:295 (1998)) except that the cells were grown in […]. Wells were stained with 500 μl of 1.0% Crystal-violet dye, rinsed twice with 2 ml double-distilled water and thoroughly dried.
P. aeruginosa strain […] was grown in 12-well polystyrene plates for 48 hours at 30° C. in M63 medium containing glycerol (0.2%) and Casamino acids ([…]). Additionally added to the wells were no amino acids (untreated), D-tyrosine or the D-amino acid equimolar mixture. Cells bound to the polystyrene were visualized by washing away unbound cells and then staining with crystal violet. Wells were stained with […] of 1.0% Crystal-violet dye, rinsed twice with 2 ml double-distilled water and thoroughly dried.
For experiments reported in Table 1, the organism/strain was S.a. Harvard SCO1, the culture medium was TSB and the cell inoculation was at 2×10^9 cfu. For experiments reported in Table 2, the organism/strain was […], the culture medium was M63 and the cell inoculation was at 1.5×10^9 cfu. Biofilm was visualized using the crystal violet method.

For a further assay, the system named is P.a. Harvard PA14. The assay can be described thus: Biofilm (colony architecture) formation on M63 defined solid medium. The following applies: 500 μM (L-tryptophan: concentration not given). It is filed as cell-based, Pseudomonas aeruginosa. The text has this:
Similarly to Bacillus subtilis, Pseudomonas aeruginosa forms a complex architecture on defined medium. These complex structures require the proper formation and assembly of the extra-cellular matrix. […] For these experiments, the organism/strain was P.a. Harvard PA14, the culture medium was M63 and the cell inoculation was at 1.5×10^9 cfu.

Assay [3] relates to B. subtilis. The assay can be described thus: Effect on cell growth in MSgg medium with shaking. It is filed as cell-based, Bacillus subtilis. The conditions noted are these: 3 μM.
The next assay concerns TasA fibers. The assay can be described thus: Cell association of TasA fibers by electron microscopy (immunogold). It is filed as cell-based, Bacillus subtilis. The following applies: 0.1 mM, 12 hours, Δeps cells. On the procedure:
Transmission electron microscopy and immunolabeling. Samples were diluted with distilled water and adsorbed onto a carbon or formvar/carbon coated grid. The grid surface was made hydrophilic prior to use with glow discharge in a vacuum evaporator. Once the specimen was adsorbed onto the film surface, the excess sample was blotted off on a filter paper (Whatman #1) and the grid was floated on 5 μl of stain solution (1-2% aqueous uranyl acetate) for a few minutes and then blotted off. The samples were dried and examined in a Tecnai™ G^2 Spirit BioTWIN microscope at an accelerating voltage of 80 KV. Images were taken with an AMT 2k CCD camera. […]
The cells were grown to stationary phase with shaking in biofilm-inducing medium in the presence or absence of D-tyrosine (6 μM). […] When the cells were washed by centrifugation, resuspended and then examined by fluorescence microscopy, untreated cells (which were often in clumps) were seen to be intensely decorated with TasA-mCherry. […] The localization of unmodified TasA protein was also analyzed by transmission electron microscopy using gold-labeled anti-TasA antibodies. […]

Assay [4] has as its system yqxM operon (strain FC122). As to the kind of experiment: Expression of PyqxM-lacZ (β-galactosidase activity). It is filed as cell-based, Bacillus subtilis. The following applies: 3 μM. On the procedure:
as §1

Assay [5] deals with B. subtilis strain NCIB3610. As to the kind of experiment: Colony biofilm formation on solid MSgg medium. It is filed as cell-based, Bacillus subtilis. The following applies: 3 μM, 4 days. As to the method: as §2
The subject of assay [6] is B. subtilis. The assay can be described thus: Disruption of existing biofilms (3 day-old pellicles). The conditions noted are these: 3 μM added to 3 day-old culture, 8 hours. It is filed as cell-based, Bacillus subtilis.

On to `N[C@H](Cc1ccc(O)cc1)C(=O)O` [D-Tyr, D-tyrosine], for which, in the assay on eps operon (strain FC5), the eps expression entry is “substantially the same as the untreated sample”. In [1] (3 μM added to freshly inoculated culture in biofilm-inducing medium, 3 days), the “effect on pellicle formation” value is “significant inhibition of biofilm growth”. For the same molecule, the “minimum concentration (MIC/MBIC) needed to prevent biofilm formation” value in [1] (complete inhibition of pellicle formation) was “about 100 nM”. The “biofilm-inhibition assay for B. subtilis” value in assay [1] (concentration not given) is on record as “significant inhibition of biofilm growth”. The “effect on biofilm formation” value in assay [2] was “effective in preventing biofilm formation”. In addition, the “effect on biofilm formation on defined medium” value in the assay with P.a. Harvard PA14 is reported as “inhibited biofilm formation on defined medium”. Further, in the assay with B. subtilis [3], the cell growth entry was “substantially the same as the untreated sample”. For the same molecule, the “cell association of TasA fibers” value in the assay with TasA fibers was “largely undecorated with TasA fibers”. Also, the yqxM expression entry in assay [4] is “substantially the same as the untreated sample”. The “effect on biofilm formation on solid medium” value in [5] is recorded as “inhibited biofilm formation”. In addition, the “effect on existing pellicles” value in the assay on B. subtilis [6] is “conspicuous breakdown of pellicles”.
